# Measured values taken from US20110224210A1, “NOVEL BIS-AMIDES AS ANTI-MALARIAL AGENTS” (priority 2008, published 2011).
# Tested on: P. falciparum K1 (strain resistant to chloroquine and pyrimethamine), erythrocytic stages
# Test: Plasmodium falciparum in vitro assay, [3H] hypoxanthine incorporation
# Format: cell-based
# Conditions: Plasmodium falciparum, K1, P. falciparum strain K1; [3H] hypoxanthine incorporation; read-out: IC50 (nM) on K1
# Outline: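 Chloroquine/pyrimethamine-resistant K1 erythrocytic cultures (2.5% haematocrit, 0.3% parasitaemia, hypoxanthine-free RPMI with Albumax) exposed to seven doubling dilutions at 37 °C under low O2.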
row,SMILES,IC50 [nM]
1,"CC(=O)N1CCN(c2ccc(CN(C(=O)C=Cc3ccc(C(F)(F)F)cc3)[C@@H](Cc3ccccc3)C(=O)N(C)CCOCc3ccc(C(F)(F)F)o3)cc2)CC1 [Example 206, (S)-N-[4-(4-Acetyl-piperazin-1-yl)-benzyl]-N-(1-{methyl-[2-(5-trifluoromethyl-furan-2-ylmethoxy)-ethyl]-carbamoyl}-2-phenyl-ethyl)-3-(4-trifluoromethyl-phenyl)-acrylamide]",81
2,"COc1cc(CN(C)CCN(C)C(=O)[C@H](Cc2ccccc2)N(Cc2ccc(N3CCOCC3)cc2)C(=O)C=Cc2ccc(C(F)(F)F)cc2)cc(OC)c1 [Example 235, (S)-N-[1-({2-[(3,5-Dimethoxy-benzyl)-methyl-amino]-ethyl}-methyl-carbamoyl)-2-phenyl-ethyl]-N-(4-morpholin-4-yl-benzyl)-3-(4-trifluoromethyl-phenyl)-acrylamide]",58
3,"CC(=O)N1CCN(c2ccc(CN(C(=O)C=Cc3ccc(C(F)(F)F)cc3)[C@@H](Cc3ccccc3)C(=O)N(C)CCN(C)Cc3ccccc3)cc2)CC1 [Example 254, (S)-N-[4-(4-Acetyl-piperazin-1-yl)-benzyl]-N-(1-{[2-(benzyl-methyl-amino)-ethyl]-methyl-carbamoyl}-2-phenyl-ethyl)-3-(4-trifluoromethyl-phenyl)-acrylamide]",76
4,"COCCN(C)C(=O)[C@H](Cc1ccccc1)N(Cc1ccc(N2CCN(C(C)=O)CC2)cc1)C(=O)C=Cc1c(C)noc1C [Example 109, (S)-N-[4-(4-Acetyl-piperazin-1-yl)-benzyl]-3-(3,5-dimethyl-isoxazol-4-yl)-N-{1-[(2-methoxy-ethyl)-methyl-carbamoyl]-2-phenyl-ethyl}-acrylamide]",100
5,"COCCN(C)C(=O)[C@H](Cc1ccccc1)N(Cc1ccc(N2CCN(C(C)=O)CC2)cc1)C(=O)C=Cc1cnc(C)n1C [Example 106, (S)-N-[4-(4-Acetyl-piperazin-1-yl)-benzyl]-3-(2,3-dimethyl-3H-imidazol-4-yl)-N-{1-[(2-methoxy-ethyl)-methyl-carbamoyl]-2-phenyl-ethyl}-acrylamide]",470
6,"CN(C)C1CCN(C(=O)[C@H](Cc2ccccc2)N(Cc2ccc(N3CCOCC3)nc2)C(=O)C=Cc2ccc(C(F)(F)F)cc2)CC1 [Example 136, (S)-N-[1-Benzyl-2-(4-dimethylamino-piperidin-1-yl)-2-oxo-ethyl]-N-(6-morpholin-4-yl-pyridin-3-ylmethyl)-3-(4-trifluoromethyl-phenyl)-acrylamide]",74
7,"O=C([C@H](Cc1ccccc1)N(Cc1ccc(-c2cncnc2)cc1)C(=O)C=Cc1ccc(C(F)(F)F)cc1)N1CCc2ccccc21 [Example 57, (S)-N-[1-Benzyl-2-(2,3-dihydro-indol-1-yl)-2-oxo-ethyl]-N-(4-pyrimidin-5-yl-benzyl)-3-(4-trifluoromethyl-phenyl)-acrylamide]",89
8,"CN(C)C1CCN(C(=O)[C@H](Cc2ccccc2)N(Cc2ccc(-c3ccccn3)cc2)C(=O)C=Cc2ccc(C(F)(F)F)cn2)CC1 [Example 17, (S)-N-[1-Benzyl-2-(4-dimethylamino-piperidin-1-yl)-2-oxo-ethyl]-N-(4-pyridin-2-yl-benzyl)-3-(5-trifluoromethyl-pyridin-2-yl)-acrylamide]",113

# These reach a lower IC50. Values come first.
row,IC50 [nM],SMILES
1,12,"COCCN(C)C(=O)[C@H](Cc1ccccc1)N(Cc1ccc(-c2ccncc2)cc1)C(=O)C=Cc1ccc(C)cn1 [Example 100, (S)-N-{1-[(2-Methoxy-ethyl)-methyl-carbamoyl]-2-phenyl-ethyl}-3-(5-methyl-pyridin-2-yl)-N-(4-pyridin-4-yl-benzyl)-acrylamide]"
2,28,"CC(=O)N1CCN(c2ccc(CN(C(=O)C=Cc3ccc(C(F)(F)F)cc3)[C@@H](Cc3ccccc3)C(=O)N(C)CCOCCOCc3ccccc3)cc2)CC1 [Example 210, (S)-N-[4-(4-Acetyl-piperazin-1-yl)-benzyl]-N-(1-{[2-(2-benzyloxy-ethoxy)-ethyl]-methyl-carbamoyl}-2-phenyl-ethyl)-3-(4-trifluoromethyl-phenyl)-acrylamide]"
3,29,"CN(CCOCc1cccc(C#N)c1)C(=O)[C@H](Cc1ccccc1)N(Cc1ccc(N2CCOCC2)cc1)C(=O)C=Cc1ccc(C(F)(F)F)cc1 [Example 197, (S)-N-(1-{[2-(3-Cyano-benzyloxy)-ethyl]-methyl-carbamoyl}-2-phenyl-ethyl)-N-(4-morpholin-4-yl-benzyl)-3-(4-trifluoromethyl-phenyl)-acrylamide]"
4,5,"O=C([C@H](Cc1ccccc1)N(Cc1ccc(N2CCOCC2)nc1)C(=O)C=Cc1ccc(C(F)(F)F)cc1)N1CCC(Cc2ccccc2)CC1 [Example 143, (S)-N-[1-Benzyl-2-(4-benzyl-piperidin-1-yl)-2-oxo-ethyl]-N-(6-morpholin-4-yl-pyridin-3-ylmethyl)-3-(4-trifluoromethyl-phenyl)-acrylamide]"
5,38,"CC(=O)N1CCN(c2ccc(CN(C(=O)C=Cc3ccc(C(F)(F)F)cc3)[C@@H](Cc3ccccc3)C(=O)N(C)CCOc3ncccn3)cc2)CC1 [Example 180, (S)-N-[4-(4-Acetyl-piperazin-1-yl)-benzyl]-N-(1-{methyl-[2-(pyrimidin-2-yloxy)-ethyl]-carbamoyl}-2-phenyl-ethyl)-3-(4-trifluoromethyl-phenyl)-acrylamide]"
6,< 8,"COCCN(C)C(=O)[C@H](Cc1ccccc1)N(Cc1ccc(N2CCOCC2)cc1)C(=O)C=Cc1ccc(C(F)(F)F)cn1 [Example 67, (S)-N-{1-[(2-Methoxy-ethyl)-methyl-carbamoyl]-2-phenyl-ethyl}-N-(4-morpholin-4-yl-benzyl)-3-(5-trifluoromethyl-pyridin-2-yl)-acrylamide]"
7,20,"CCOCCN(C)C(=O)[C@H](Cc1ccccc1)N(Cc1ccc(N2CCN(C(C)=O)CC2)cc1)C(=O)C=Cc1ccc(C(F)(F)F)cc1 [Example 193, (S)-N-[4-(4-Acetyl-piperazin-1-yl)-benzyl]-N-{1-[(2-ethoxy-ethyl)-methyl-carbamoyl]-2-phenyl-ethyl}-3-(4-trifluoromethyl-phenyl)-acrylamide]"
8,10,"CN(CCN(C)C(=O)[C@H](Cc1ccccc1)N(Cc1ccc(-c2ccccn2)cc1)C(=O)C=Cc1ccc(C(F)(F)F)cc1)Cc1ccc(C(F)(F)F)nc1 [Example 230, (S)-N-[1-(Methyl-{2-[methyl-(6-trifluoromethyl-pyridin-3-ylmethyl)-amino]-ethyl}-carbamoyl)-2-phenyl-ethyl]-N-(4-pyridin-2-yl-benzyl)-3-(4-trifluoromethyl-phenyl)-acrylamide]"
9,16,"COc1ccc(COCCN(C)C(=O)[C@H](Cc2ccccc2)N(Cc2ccc(N3CCOCC3)cc2)C(=O)C=Cc2ccc(C(F)(F)F)cc2)cc1F [Example 196, (S)-N-(1-{[2-(3-Fluoro-4-methoxy-benzyloxy)-ethyl]-methyl-carbamoyl}-2-phenyl-ethyl)-N-(4-morpholin-4-yl-benzyl)-3-(4-trifluoromethyl-phenyl)-acrylamide]"
10,< 8,"COCCN(C)C(=O)[C@H](Cc1ccccc1)N(Cc1ccc(-c2cncnc2)cc1)C(=O)C=Cc1ccc(C(F)(F)F)cn1 [Example 130, (S)-N-{1-[(2-Methoxy-ethyl)-methyl-carbamoyl]-2-phenyl-ethyl}-N-(4-pyrimidin-5-yl-benzyl)-3-(5-trifluoromethyl-pyridin-2-yl)-acrylamide]"
